# Measurements as given in article PMC9863987, “Identification of Aryl Polyamines Derivatives as Anti-Trypanosoma cruzi Agents Targeting Iron Superoxide Dismutase” (Pharmaceutics, 2022).
# What was measured:
# [1] = system: epimastigotes of T. cruzi Arequipa strain; experiment: Mitochondrial membrane potential by flow cytometry (rhodamine 123); type: cell-based, Trypanosoma cruzi; conditions: compounds at IC25 concentrations, 72 h; KCN 10 mM, 40 min; mean of three ± SD
# T. cruzi Arequipa strain [2] = experiment: Infection reactivation by cyclophosphamide immunosuppression in infected BALB/c mice; type: in vivo, Trypanosoma cruzi; conditions: oral 20 mg/Kg/day for 5 days, related to control group
# [3] = Clinical analysis of heart, kidney and liver markers in serum of treated mice; type: in vivo, BALB/c mice; conditions: n = 3
# Method: (§1) Infection was carried out by intraperitoneal inoculation of 5 × 10^5 BTs of T. cruzi Arequipa strain per mouse in 0.2 mL PBS [26]. The infection was monitored and on the 10th day post-infection (dpi), when BTs were visible in the bloodstream, the infection was confirmed.
# (§2) Mice were divided into four groups (n = 3 per group): 0, negative control group (uninfected and untreated mice); I, positive control group (infected and untreated mice); II, BZN group (mice infected and treated with BZN); III, 15 group (mice infected and treated with 15).
# (§3) The treatment for mice treated in the acute and chronic CD began when the infection was confirmed (10th dpi) and was stablished that the animals had entered the chronic CD (75th dpi), respectively (Scheme 1). Compound 15 and BZN were orally administered for 5 consecutive days at a dose of 20 mg·Kg^−1·day^−1.
# Blood samples were collected in several dpi (Scheme 1) and processed according the method previously reported to obtain serum. Serum samples were then aliquoted to ELISA test and clinical analysis.
# Heart, kidney and liver markers were measured from blood in several dpi (Scheme 1) with Cromakit® as previously reported. Mean and standard deviations were calculated using the levels measured for different populations of sera (n = 15, n = 3), and the confidence interval were also calculated based on a confidence level of 95% (100 × (1 − α) = 100 × (1 − 0.05)).
# [4] = system: T. cruzi Tulahuen strain epimastigotes; experiment: Screening against extracellular epimastigotes, Tulahuen strain (resazurin); type: cell-based, Trypanosoma cruzi; conditions: Trypanosoma cruzi, TULAHUEN; epimastigotes; 48 h treatment + 24 h resazurin; mean of three ± SD; read-out: Activity IC50 T. cruzi Tulahuen Strain E
# Method: Three different T. cruzi […] strains—MHOM/Pe/2011/Arequipa, discrete typing unit (DTU) V [26]; IRHOD/CO/2008/SN3, DTU I [27]; TINF/CH/1956/Tulahuen, DTU VI [26]—were grown at 28 °C in Gibco® RPMI 1640 Medium supplemented as previously reported, and used for in vitro screening.
# Trypanocidal activity against epimastigotes was tested as previously reported. In brief, 5 × 10^5 mL^−1 epimastigotes culture medium were treated by adding the compounds in serial dilutions from 100 to 0.2 µM in 96-well plates (200 µL·well^−1) for 48 h. BZN and untreated growth control were also included in triplicate. Later, 20 μL of resazurin sodium salt (Sigma-Aldrich, St. Louis, MO, USA) was added, and the plates were incubated for another 24 h. Finally, the absorbance of the wells was measured at 570/600 nm and related to the control. The trypanocidal activity was expressed as the IC50 (inhibitory concentration 50) value using GraphPad Prism 6 software.
# [5] = system: T. cruzi Tulahuen strain amastigotes; experiment: Screening against intracellular amastigotes in Vero cells, Tulahuen strain (Giemsa counting); type: cell-based, Trypanosoma cruzi; conditions: Trypanosoma cruzi, TULAHUEN; amastigotes in Vero cells; 72 h; mean of three ± SD
# Method: (§4) TINF/CH/1956/Tulahuen, DTU VI [26]—were grown at 28 °C in Gibco® RPMI 1640 Medium supplemented as previously reported, and used for in vitro screening. Trypanocidal activity against amastigotes was tested as previously reported. In brief, bloodstream trypomastigotes (BTs), obtained by cardiac puncture from infected BALB/c mice, were used to infect 1 × 10^4 Vero cells·well^−1 in 24-well plates with rounded coverslips at a multiplicity of infection (MOI) ratio of 10:1. After 24 h of infection, non-internalized trypomastigotes were washed and the infected cells were treated by adding the compounds in serial dilutions from 50 to 0.5 µM in […] for 72 h. BZN and untreated growth controls were also included in triplicate. Later, the number of amastigotes and infected cells were determined in Giemsa stained preparations by analysing 500 host cells randomly distributed in microscopic fields. The trypanocidal activity was expressed as the IC50 using GraphPad Prism 6 software (version 6.07).
# [6] = system: T. cruzi Tulahuen strain trypomastigotes; experiment: Screening against bloodstream trypomastigotes, Tulahuen strain (resazurin); type: cell-based, Trypanosoma cruzi; conditions: Trypanosoma cruzi, TULAHUEN; trypomastigotes; 24 h + 4 h resazurin; mean of three ± SD
# T. cruzi Arequipa strain [7] = experiment: Monitoring of acute parasitaemia by counting in infected BALB/c mice; type: in vivo, Trypanosoma cruzi; conditions: acute infection
# Method: (§5) All animal work (Scheme 1) and maintenance was performed under RD53/2013 and approved by the Ethics Committee on Animal Experimentation (CEEA) of the University of Granada, Spain. Female BALB/c mice (aged 10–12 weeks and 20–22 g) were used in the subsequent in vivo assays.
# as §1, §2, §3
# […]. The fresh blood microscopic examination was performed from the 7th day until the day when parasitaemia was not detected (Scheme 1).
# T. cruzi Arequipa strain [8] = experiment: Nested amastigotes detection by PCR in nine target organs/tissues of infected BALB/c mice; type: in vivo, Trypanosoma cruzi; conditions: oral 20 mg/Kg/day for 5 days
# Method: as §1, §2, §3
# After CP-induced immunosuppression, the mice were euthanised using CO2 by exsanguination via cardiac puncture, and blood was collected. Then, 9 target organs/tissues were harvested: adipose, bone marrow, brain, oesophagus, heart, lung, muscle, spleen, and stomach. These organs/tissues were perfused with pre-warmed PBS to avoid contamination with BTs, and stored at −80 °C. In addition, spleens were weighed to assess splenomegaly.
# DNA extraction of the target organs/tissues was performed using Wizard® Genomic DNA Purification Kit. DNA was subjected to amplification by PCR based on the sequence of the T. cruzi splice leader (SL) intergenic region using two published primers (TC and TC1) that allow the amplification of a 300 base pairs fragment in different biological samples. […]
# [9] = system: T. cruzi SN3 strain amastigotes; experiment: Screening against intracellular amastigotes in Vero cells, SN3 strain (Giemsa counting); type: cell-based, Trypanosoma cruzi; conditions: Trypanosoma cruzi; amastigotes in Vero cells; 72 h; mean of three ± SD
# Method: as §4
# [10] = system: T. cruzi Arequipa strain trypomastigotes; experiment: Screening against bloodstream trypomastigotes, Arequipa strain (resazurin); type: cell-based, Trypanosoma cruzi; conditions: Trypanosoma cruzi; trypomastigotes; 24 h + 4 h resazurin; mean of three ± SD
# [11] = system: T. cruzi Arequipa strain amastigotes; experiment: Screening against intracellular amastigotes in Vero cells, Arequipa strain (Giemsa counting); type: cell-based, Trypanosoma cruzi
# Method: as §4
# [12] = type: in vivo, BALB/c mice; conditions: oral 20 mg/Kg/day for 5 days; acute and chronic infections
# Method: as §5, §1, §2, §3
# [13] = treatment in the acute infection
# [14] = treatment in acute phase, 16th dpi (2 days after treatment)
# [15] = treatment in acute phase, necropsy day
# [16] = treatment in chronic phase, 81th dpi (2 days after treatment)
# [17] = treatment in chronic phase, necropsy day
smiles,measurement,setting,value
"O=C(Cn1ccnc1[N+](=O)[O-])NCc1ccccc1 [BZN, benznidazole, reference compound]",Inhibition on mitochondrial membrane potential with respect to untreated epimastigotes,[1],35.4%
same,reactivation of parasitaemia after immunosuppression,T. cruzi Arequipa strain [2]; [13],75%
same,reactivation of parasitaemia after immunosuppression,T. cruzi Arequipa strain [2]; treatment in the chronic infection (from 75th dpi),51%
same,"ALP, variation over the range",[3]; [14],++ (20-30% increase/decrease over the range)
same,"ALT/GPT, variation over the range",[3]; [14],++++ (˃ 40% increase/decrease over the range)
same,"AST/GOT, variation over the range",[3]; [14],++++ (˃ 40% increase/decrease over the range)
same,"CK-MB, variation over the range",[3]; [14],= (variation ≤ 10%)
same,"LDH, variation over the range",[3]; [14],= (variation ≤ 10%)
same,"Total bilirubin, variation over the range",[3]; [14],++ (20-30% increase/decrease over the range)
same,"Urea, variation over the range",[3]; [14],--- (30-40% increase/decrease over the range)
same,"Uric acid, variation over the range",[3]; [14],---- (˃ 40% increase/decrease over the range)
same,"ALP, variation over the range",[3]; [15],= (variation ≤ 10%)
same,"ALT/GPT, variation over the range",[3]; [15],= (variation ≤ 10%)
same,"AST/GOT, variation over the range",[3]; [15],++++ (˃ 40% increase/decrease over the range)
same,"CK-MB, variation over the range",[3]; [15],= (variation ≤ 10%)
same,"LDH, variation over the range",[3]; [15],= (variation ≤ 10%)
same,"Total bilirubin, variation over the range",[3]; [15],+ (10-20% increase/decrease over the range)
same,"Urea, variation over the range",[3]; [15],--- (30-40% increase/decrease over the range)
same,"Uric acid, variation over the range",[3]; [15],= (variation ≤ 10%)
same,"ALP, variation over the range",[3]; [16],++++ (˃ 40% increase/decrease over the range)
same,"ALT/GPT, variation over the range",[3]; [16],++ (20-30% increase/decrease over the range)
same,"AST/GOT, variation over the range",[3]; [16],++ (20-30% increase/decrease over the range)
same,"CK-MB, variation over the range",[3]; [16],-- (20-30% increase/decrease over the range)
same,"LDH, variation over the range",[3]; [16],--- (30-40% increase/decrease over the range)
same,"Total bilirubin, variation over the range",[3]; [16],+++ (30-40% increase/decrease over the range)
same,"Urea, variation over the range",[3]; [16],--- (30-40% increase/decrease over the range)
same,"Uric acid, variation over the range",[3]; [16],---- (˃ 40% increase/decrease over the range)
same,"ALP, variation over the range",[3]; [17],++ (20-30% increase/decrease over the range)
same,"ALT/GPT, variation over the range",[3]; [17],= (variation ≤ 10%)
same,"AST/GOT, variation over the range",[3]; [17],+ (10-20% increase/decrease over the range)
same,"CK-MB, variation over the range",[3]; [17],= (variation ≤ 10%)
same,"LDH, variation over the range",[3]; [17],-- (20-30% increase/decrease over the range)
same,"Total bilirubin, variation over the range",[3]; [17],++ (20-30% increase/decrease over the range)
same,"Urea, variation over the range",[3]; [17],--- (30-40% increase/decrease over the range)
same,"Uric acid, variation over the range",[3]; [17],-- (20-30% increase/decrease over the range)
same,IC50,[4],19.7 ± 1.7 µM
same,IC50,[5],10 ± 0.8 µM
same,IC50,[6],15.1 ± 1.3 µM
same,parasitaemia reduction on the day of maximum parasitaemia,"T. cruzi Arequipa strain [7]; oral 20 mg/Kg/day for 5 days from 10th dpi, vs untreated control",~ 65%
same,"parasitaemia undetectable, days before control mice","T. cruzi Arequipa strain [7]; oral 20 mg/Kg/day for 5 days, control detectable up to 50 dpi",3 days
same,"clearance of nested parasites in target organs/tissues (parasite-free organs/tissues, PCR)",T. cruzi Arequipa strain [8]; [13],33%
same,"clearance of nested parasites in target organs/tissues (parasite-free organs/tissues, PCR)",T. cruzi Arequipa strain [8]; treatment in the chronic infection,56%
same,IC50,[9],16.6 ± 1.4 µM
same,IC50,[10],12.4 ± 1.1 µM
same,number of amastigotes per Vero cell,"[11]; 50 μM, 72 h of exposure",practically zero
same,IC50,"[11]; Trypanosoma cruzi, amastigotes in Vero cells, 72 h, mean of three ± SD",8.3 ± 0.7 µM
same,death or body mass loss of treated mice,[12],none of the mice died or lost more than 10% body mass
